These results are taken from patent publication US12084444B2, “Spiro-lactam NMDA modulators and methods of using same” (Tenacia Biotechnology (Hong Kong) Co., Limited, priority 2016, dated 2024).

Common to all, as to type: biochemical
The target in test [1] is T1, NMDAR2B expressing HEK cell membranes (Homo sapiens, UniProt Q13224).
T1 construct: expressed in transfected cells; host or cells: HEK cells (membrane extract)
The test is described as follows: NMDAR agonist assay, [3H]MK-801 binding, NMDAR2B. Particulars: 50 μM glutamate; for EC50: read-out: NMDAR2B B: log EC50 (converted). Further details: key to NMDAR2B B: log EC50: 0=−; ≥1×10^−9 M (e.g., −8)=+; <1×10^−9 M (e.g., −10)=++. How it is done:
(§1) Assays were conducted as described by Moskal et al., “GLYX-13: a monoclonal antibody-derived peptide that acts as an N-methyl-D-aspartate receptor modulator,” Neuropharmacology, 49, 1077-87, 2005. These studies were designed to determine if the test compounds act to facilitate NMDAR activation in NMDAR2A, NMDAR2B, NMDAR2C or NMDAR2D expressing HEK cell membranes as measured by increases in [^3H]MK-801 binding.
(§2) In the assay, 300 μg of NMDAR expressing HEK cell membrane extract protein was preincubated for 15 minutes at 25° C. in the presence of saturating concentrations of glutamate (50 μM) and varying concentrations of test compound (1×10^−15 M-1×10^−7 M), or 1 mM glycine. Following the addition of 0.3 μCi of [^3H]MK-801 (22.5 Ci/mmol), reactions were again incubated for 15 minutes at 25° C. (nonequilibrium conditions). Bound and free [^3H]MK-801 were separated via rapid filtration using a Brandel apparatus.
(§3) In analyzing the data, the DPM (disintegrations per minute) of [^3H]MK-801 remaining on the filter were measured for each concentration of test compound or for 1 mM glycine. The DPM values for each concentration of a ligand (N=2) were averaged. The baseline value was determined from the best fit curve of the DPM values modeled using the GraphPad program and the log(agonist) vs. response(three parameters) algorithm was then subtracted from all points in the dataset. The % maximal [^3H]MK-801 binding was then calculated relative to that of 1 mM glycine: all baseline subtracted DPM values were divided by the average value for 1 mM glycine. The EC50 and % maximal activity were then obtained from the best fit curve of the % maximal [^3H]MK-801 binding data modelled using the GraphPad program and the log(agonist) vs. response(three parameters) algorithm.
(§4) The tables below summarize the results for the wild type NMDAR agonists NMDAR2A, NMDAR2B, NMDAR2C, and NMDAR2D, and whether the compound is not an agonist (−), is an agonist (+), or is a strong agonist (++), where column A is based on the % maximal [^3H]MK-801 binding relative to 1 mM glycine (−=0; <100%=+; and >100%=++); and column B is based on log EC50 values (0=−; ≥1×10^−9 M (e.g., −8)=+; and <1×10^−9 M (e.g., −10)=++).

Test [2] concerns the target T2, NMDAR2A expressing HEK cell membranes (Homo sapiens, UniProt Q05586+Q12879).
T2 construct: expressed in transfected cells; host or cells: HEK cells (membrane extract)
The test is described as follows: NMDAR agonist assay, [3H]MK-801 binding, NMDAR2A. Further details: key to NMDAR2A B: log EC50: 0=−; ≥1×10^−9 M (e.g., −8)=+; <1×10^−9 M (e.g., −10)=++. The note with it: 50 μM glutamate; for EC50: read-out: NMDAR2A B: log EC50 (converted); for Emax: 0.25 h, read-out: NMDAR2A A: % maximal [3H]MK-801 binding relative to 1 mM glycine. How it is done: as §1, §2, §3, §4

Test [3] has as its target T3, NMDAR2A expressing HEK cell membranes (Homo sapiens, UniProt Q12879).
T3 construct: expressed in transfected cells; host or cells: HEK cells (membrane extract)
The test is described as follows: NMDAR agonist assay, [3H]MK-801 binding, NMDAR2A. The note with it: 50 μM glutamate; for EC50: read-out: NMDAR2A B: log EC50 (converted). Further details: key to NMDAR2A B: log EC50: 0=−; ≥1×10^−9 M (e.g., −8)=+; <1×10^−9 M (e.g., −10)=++. The procedure: as §1, §2, §3, §4

Test [4] addresses T4, NMDAR2B expressing HEK cell membranes (Homo sapiens, UniProt Q05586+Q13224).
T4 construct: expressed in transfected cells; host or cells: HEK cells (membrane extract)
The test is described as follows: NMDAR agonist assay, [3H]MK-801 binding, NMDAR2B. Also noted: key to NMDAR2B B: log EC50: 0=−; ≥1×10^−9 M (e.g., −8)=+; <1×10^−9 M (e.g., −10)=++. The note with it: 50 μM glutamate; for Emax: 0.25 h, read-out: NMDAR2B A: % maximal [3H]MK-801 binding relative to 1 mM glycine; for EC50: read-out: NMDAR2B B: log EC50 (converted). How it is done:
as §1, §2, §3, §4

T2 sequence (Q12879 23-1464, other chains not shown): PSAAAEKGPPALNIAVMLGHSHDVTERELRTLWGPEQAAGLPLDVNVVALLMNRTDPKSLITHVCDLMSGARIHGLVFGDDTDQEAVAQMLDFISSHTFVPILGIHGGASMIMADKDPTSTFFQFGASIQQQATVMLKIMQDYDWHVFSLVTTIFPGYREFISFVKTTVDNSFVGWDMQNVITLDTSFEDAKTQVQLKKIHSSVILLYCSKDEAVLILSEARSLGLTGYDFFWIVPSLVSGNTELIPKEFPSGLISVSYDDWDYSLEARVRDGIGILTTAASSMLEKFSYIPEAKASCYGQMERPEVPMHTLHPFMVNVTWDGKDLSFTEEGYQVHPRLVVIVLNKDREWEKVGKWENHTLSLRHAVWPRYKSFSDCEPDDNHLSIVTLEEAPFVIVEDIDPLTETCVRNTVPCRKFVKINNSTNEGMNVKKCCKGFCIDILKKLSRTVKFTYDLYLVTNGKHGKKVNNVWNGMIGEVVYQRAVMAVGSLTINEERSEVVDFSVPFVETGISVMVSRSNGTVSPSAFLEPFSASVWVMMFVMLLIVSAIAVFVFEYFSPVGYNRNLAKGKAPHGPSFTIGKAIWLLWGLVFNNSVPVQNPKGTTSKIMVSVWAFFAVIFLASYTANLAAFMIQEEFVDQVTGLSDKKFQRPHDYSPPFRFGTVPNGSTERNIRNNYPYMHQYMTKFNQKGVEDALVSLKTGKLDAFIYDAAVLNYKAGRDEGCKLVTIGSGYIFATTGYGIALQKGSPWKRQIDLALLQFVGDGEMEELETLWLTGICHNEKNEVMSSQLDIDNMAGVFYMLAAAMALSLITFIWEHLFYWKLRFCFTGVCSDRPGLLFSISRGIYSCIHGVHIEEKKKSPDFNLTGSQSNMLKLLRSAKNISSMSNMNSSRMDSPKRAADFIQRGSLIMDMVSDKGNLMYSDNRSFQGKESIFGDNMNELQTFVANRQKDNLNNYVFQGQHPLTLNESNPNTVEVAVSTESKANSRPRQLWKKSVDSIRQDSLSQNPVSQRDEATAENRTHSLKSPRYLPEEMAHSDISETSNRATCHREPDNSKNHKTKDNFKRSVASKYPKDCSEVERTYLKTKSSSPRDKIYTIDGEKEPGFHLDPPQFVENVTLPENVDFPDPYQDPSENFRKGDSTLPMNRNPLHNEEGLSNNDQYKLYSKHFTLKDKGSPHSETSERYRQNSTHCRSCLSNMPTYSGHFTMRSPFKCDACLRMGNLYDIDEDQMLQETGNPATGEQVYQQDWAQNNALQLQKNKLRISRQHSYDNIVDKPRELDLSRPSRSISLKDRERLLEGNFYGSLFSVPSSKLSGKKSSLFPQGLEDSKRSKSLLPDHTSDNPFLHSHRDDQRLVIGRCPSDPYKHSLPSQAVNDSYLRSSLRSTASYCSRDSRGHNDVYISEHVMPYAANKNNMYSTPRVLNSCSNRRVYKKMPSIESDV
T3 sequence (Q12879 23-1464, other chains not shown): as above
T4 sequence (Q13224 27-1484, other chains not shown): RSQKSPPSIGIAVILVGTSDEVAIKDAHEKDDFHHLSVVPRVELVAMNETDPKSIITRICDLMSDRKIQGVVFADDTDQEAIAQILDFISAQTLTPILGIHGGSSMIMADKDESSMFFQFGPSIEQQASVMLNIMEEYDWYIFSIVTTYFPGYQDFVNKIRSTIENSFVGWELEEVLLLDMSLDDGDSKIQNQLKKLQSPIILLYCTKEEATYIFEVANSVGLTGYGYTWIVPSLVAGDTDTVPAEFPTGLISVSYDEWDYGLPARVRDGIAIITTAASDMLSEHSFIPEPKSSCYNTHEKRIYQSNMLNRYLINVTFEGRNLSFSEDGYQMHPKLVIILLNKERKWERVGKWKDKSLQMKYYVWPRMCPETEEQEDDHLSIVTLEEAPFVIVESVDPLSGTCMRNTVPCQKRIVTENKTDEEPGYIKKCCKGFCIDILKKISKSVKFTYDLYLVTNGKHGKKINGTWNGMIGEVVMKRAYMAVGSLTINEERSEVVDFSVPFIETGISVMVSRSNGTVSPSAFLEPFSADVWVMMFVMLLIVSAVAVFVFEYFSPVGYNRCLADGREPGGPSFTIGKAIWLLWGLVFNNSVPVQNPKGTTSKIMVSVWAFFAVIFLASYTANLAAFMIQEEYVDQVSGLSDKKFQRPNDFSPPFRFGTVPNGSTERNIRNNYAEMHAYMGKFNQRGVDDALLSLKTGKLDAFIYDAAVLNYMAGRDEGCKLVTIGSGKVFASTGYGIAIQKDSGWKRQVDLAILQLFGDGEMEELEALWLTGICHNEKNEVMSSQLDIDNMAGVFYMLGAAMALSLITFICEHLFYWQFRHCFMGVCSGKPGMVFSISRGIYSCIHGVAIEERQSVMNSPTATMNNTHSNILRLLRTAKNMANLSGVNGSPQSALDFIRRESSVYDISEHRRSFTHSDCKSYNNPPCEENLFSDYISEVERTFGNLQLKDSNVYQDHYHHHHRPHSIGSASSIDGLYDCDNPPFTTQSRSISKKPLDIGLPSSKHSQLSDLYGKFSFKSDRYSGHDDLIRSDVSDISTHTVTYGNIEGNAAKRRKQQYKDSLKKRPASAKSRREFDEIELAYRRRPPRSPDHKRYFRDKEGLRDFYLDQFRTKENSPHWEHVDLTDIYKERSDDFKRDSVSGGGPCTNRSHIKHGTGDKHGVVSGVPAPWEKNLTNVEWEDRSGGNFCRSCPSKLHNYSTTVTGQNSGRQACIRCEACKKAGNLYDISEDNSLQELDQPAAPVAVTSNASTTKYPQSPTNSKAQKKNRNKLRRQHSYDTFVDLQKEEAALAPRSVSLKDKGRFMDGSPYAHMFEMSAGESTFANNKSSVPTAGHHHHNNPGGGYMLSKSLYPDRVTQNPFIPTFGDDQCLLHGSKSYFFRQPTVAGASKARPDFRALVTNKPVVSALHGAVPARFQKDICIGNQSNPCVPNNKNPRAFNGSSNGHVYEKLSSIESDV

With `O=C1CC2(CCN1)CN(Cc1ccccc1)C2=O` (single isomer, unassigned) [CV, 2-benzyl-2,7-diazaspiro[3.5]nonane-1,6-dione], in test [1], the “NMDAR2B A: % maximal [3H]MK-801 binding relative to 1 mM glycine” value was “+ (<100%=+)”. Further, the EC50 in test [1] and in test [2] was below 1 nM each time. In test [3], the “NMDAR2A A: % maximal [3H]MK-801 binding relative to 1 mM glycine” value is “+ (<100%=+)”.

On to `CNC(=O)[C@H]([C@@H](C)O)N1CC2(CCNC(=O)C2)C1=O` (stereo partly drawn) [DA, (2S,3R)-2-(1,6-dioxo-2,7-diazaspiro[3.5]nonan-2-yl)-3-hydroxy-N-methylbutanamide], for which, in test [1], the “NMDAR2B B: log EC50” value is “−”. Moreover, the Emax in test [4] and in test [2] was 0% in each case. Moreover, in test [3], the “NMDAR2A B: log EC50” value is recorded as “−”.

Turning to `COc1ccc(CN2CC3(CCNC(=S)C3)C2=S)cc1` (single isomer, unassigned) [CP, 2-(4-methoxybenzyl)-2,7-diazaspiro[3.5]nonane-1,6-dithione], in test [1], the “NMDAR2B A: % maximal [3H]MK-801 binding relative to 1 mM glycine” value is “+ (<100%=+)”. Also, the EC50 in test [4] is below 1 nM. Besides, in test [3], the “NMDAR2A A: % maximal [3H]MK-801 binding relative to 1 mM glycine” value was “+ (<100%=+)” and the EC50 was below 1 nM.

As to `C[C@@H](O)[C@@H](C(=O)NCc1ccccc1)N1CC2(CCNC(=O)C2)C1=O` (stereo partly drawn) [CA, (2S,3R)—N-benzyl-2-(1,6-dioxo-2,7-diazaspiro[3.5]nonan-2-yl)-3-hydroxybutanamide], in test [1], the “NMDAR2B B: log EC50” value is “−”. Moreover, the Emax in test [4] and in test [2] was 0% throughout. Also, the “NMDAR2A B: log EC50” value in test [3] is listed as “−”.

As to `C[C@@H](O)[C@@H](C(=O)N(C)C)N1CC2(CCNC(=O)C2)C1=O` (single isomer, unassigned) [CD], in test [1], the “NMDAR2B A: % maximal [3H]MK-801 binding relative to 1 mM glycine” value is recorded as “+ (<100%=+)” and the EC50 is below 1 nM. For the same compound, in test [2], the EC50 is below 1 nM. Further, the “NMDAR2A A: % maximal [3H]MK-801 binding relative to 1 mM glycine” value in test [3] is “+ (<100%=+)”.

Take `CCN1CCC2(CC1=O)CN(Cc1ccc(OC)cc1)C2=O` (stereo not drawn) [CK, 7-ethyl-2-(4-methoxybenzyl)-2,7-diazaspiro[3.5]nonane-1,6-dione]: the “NMDAR2B B: log EC50” value in test [1] is recorded as “−”. Besides, the Emax in test [4] and in test [2] was 0% throughout. Also, in test [3], the “NMDAR2A B: log EC50” value is “−”.

As for `CC1CC(=O)N(c2ccc(F)cc2)C12CN([C@H](C(N)=O)[C@@H](C)O)C2=O` (single isomer, unassigned) [DL], in test [1], the “NMDAR2B A: % maximal [3H]MK-801 binding relative to 1 mM glycine” value is listed as “− (−=0)” and the “NMDAR2B B: log EC50” value is on record as “−”. In addition, the EC50 in test [2] is below 1 nM. The “NMDAR2A A: % maximal [3H]MK-801 binding relative to 1 mM glycine” value in test [3] is given as “+ (<100%=+)”.

For `CN1CC2(CCNC(=O)C2)C1=O` (single isomer, unassigned) [DH, 2-methyl-2,7-diazaspiro[3.5]nonane-1,6-dione], the “NMDAR2B A: % maximal [3H]MK-801 binding relative to 1 mM glycine” value in test [1] is listed as “++ (>100%=++)”. Also, the EC50 in test [4] was below 1 nM. In addition, in test [3], the “NMDAR2A A: % maximal [3H]MK-801 binding relative to 1 mM glycine” value is on record as “+ (<100%=+)” and the EC50 was below 1 nM.

As to `COc1ccc(CN2CC3(CCN(CC(C)C)C(=O)C3)C2=O)cc1` (single isomer, unassigned) [CT, 7-isobutyl-2-(4-methoxybenzyl)-2,7-diazaspiro[3.5]nonane-1,6-dione], in test [1], the “NMDAR2B A: % maximal [3H]MK-801 binding relative to 1 mM glycine” value is “− (−=0)” and the “NMDAR2B B: log EC50” value is “−”. Also, in test [3], the “NMDAR2A A: % maximal [3H]MK-801 binding relative to 1 mM glycine” value is reported as “+ (<100%=+)” and the EC50 was below 1 nM.

Regarding `CC1CC(=O)N(C)C12CN(CC(N)=O)C2=O` (single isomer, unassigned) [DJ, 2-(5,8-dimethyl-1,6-dioxo-2,5-diazaspiro[3.4]octan-2-yl)acetamide], in test [1], the “NMDAR2B A: % maximal [3H]MK-801 binding relative to 1 mM glycine” value is given as “+ (<100%=+)” and the EC50 was below 1 nM. In test [3], the “NMDAR2A A: % maximal [3H]MK-801 binding relative to 1 mM glycine” value is reported as “− (−=0)” and the “NMDAR2A B: log EC50” value was “−”.

With `CC(C)CN1CC2(CCNC(=O)C2)C1=O` (single isomer, unassigned) [DF, 2-isobutyl-2,7-diazaspiro[3.5]nonane-1,6-dione], the EC50 in test [1] and in test [3] was below 1 nM each time.
